# Values of other authors as cited in patent US12090150B2, “Deuterated analogs of elacridar” (priority 2018, dated 2024).
# Tests used:
# [1] = tested on: P-gp/BCRP pumps located in the GI tract; conditions: cancer patients
# [2] = tested on: P-gp and BCRP at the blood brain barrier; conditions: rodents; morphine, amprenavir, imatinib, dasatinib, gefitinib, sorafenib, sunitinib
smiles,measurement,setting,value
"COc1cc2c(cc1OC)CN(CCc1ccc(NC(=O)c3cccc4c(=O)c5cccc(OC)c5[nH]c34)cc1)CC2 [elacridar, 9,10-dihydro-5-methoxy-9-oxo-N-[4-[2-(1,2,3,4-tetrahydro-6,7-dimethoxy-2-isoquinolinyl)ethyl]phenyl]-4-acridine-carboxamide]",solubility in water,,practically insoluble in water
same,oral absorption of coadministered paclitaxel (P-gp substrate) and topotecan (BCRP substrate),[1],improved
same,increase of drug levels in the brain of coadministered pump substrates,[2],some success
